Molecular target: T1, PDGF receptor (Rattus norvegicus, UniProt Q05030)
T1 construct: cultured rat mesangial cells which are known to have the PDGF receptor; endogenous in cells; host or cells: primary mesangial cells cultured from glomeruli of Wistar-Kyoto rats (Charles River Japan), more than 5 passages
Experiment: PDGF receptor autophosphorylation inhibition in cultured rat mesangial cells
Assay type: cell-based
Conditions: PDGF-BB 50 ng/ml
Experimental: 1. Cultivation of rat mesangial cells
The glomerulus-derived adhesive cells were subcultured several times to obtain mesangial cells. The mesangial cells subcultured more than 5 passages were used for the assay.
2.Evaluation of PDGF receptor autophosphorylation inhibition
The mesangial cells were seeded in 24-well flat-bottom microtiter plates and then cultured in the medium containing 10% FCS for 2 days. When the cells were grown to about 3×10^4 cells per well, the medium was changed to the medium containing 0.5% FCS, the cultivation was continued for another 3 days, and then cell growth was arrested. The culture medium was removed, the adhered cells were washed with 500 μl of the medium, and 250 μl of the medium containing 0.1% bovine serum albumin (hereinafter abbreviated to BSA) was then added. A test drug dissolved in 1.38 μl of dimethyl sulfoxide (hereinafter abbreviated to DMSO) was added to this culture medium, and the admixture was incubated at 37° C. for 1 hour. Recombinant human platelet-derived growth factor BB chain (hereinafter abbreviated to PDGF-BB) was dissolved in the medium containing 0.1% BSA, 25 μl per well of the solution was added at final 50 ng/ml, and the incubation was continued at 37° C. for 10 minutes. […] The cells were allowed to stand at 4° C. for 30 minutes for lysis, and the resulting solution was thoroughly admixed with an equal amount of Tris-buffered physiological saline containing 1% sodium dodecyl sulfate (hereinafter abbreviated to SDS). […] After the electrophoresis, proteins in the gel were electrically transferred to a PVDF filter, which was then subjected to Western blotting using monoclonal antibodies against phosphotyrosine. Bands of PDGF receptor (molecular weight: about 180 Kda) which were autophosphorylated due to the addition of PDGF-BB were quantitated by a densitometer. Autophosphorylation rates for individual wells with drugs were calculated by setting measurements for PDGF receptor autophosphorylation in the wells without drugs in the presence and absence of PDGF-BB as 100% and 0%, respectively.

T1 sequence (Q05030 32-1097): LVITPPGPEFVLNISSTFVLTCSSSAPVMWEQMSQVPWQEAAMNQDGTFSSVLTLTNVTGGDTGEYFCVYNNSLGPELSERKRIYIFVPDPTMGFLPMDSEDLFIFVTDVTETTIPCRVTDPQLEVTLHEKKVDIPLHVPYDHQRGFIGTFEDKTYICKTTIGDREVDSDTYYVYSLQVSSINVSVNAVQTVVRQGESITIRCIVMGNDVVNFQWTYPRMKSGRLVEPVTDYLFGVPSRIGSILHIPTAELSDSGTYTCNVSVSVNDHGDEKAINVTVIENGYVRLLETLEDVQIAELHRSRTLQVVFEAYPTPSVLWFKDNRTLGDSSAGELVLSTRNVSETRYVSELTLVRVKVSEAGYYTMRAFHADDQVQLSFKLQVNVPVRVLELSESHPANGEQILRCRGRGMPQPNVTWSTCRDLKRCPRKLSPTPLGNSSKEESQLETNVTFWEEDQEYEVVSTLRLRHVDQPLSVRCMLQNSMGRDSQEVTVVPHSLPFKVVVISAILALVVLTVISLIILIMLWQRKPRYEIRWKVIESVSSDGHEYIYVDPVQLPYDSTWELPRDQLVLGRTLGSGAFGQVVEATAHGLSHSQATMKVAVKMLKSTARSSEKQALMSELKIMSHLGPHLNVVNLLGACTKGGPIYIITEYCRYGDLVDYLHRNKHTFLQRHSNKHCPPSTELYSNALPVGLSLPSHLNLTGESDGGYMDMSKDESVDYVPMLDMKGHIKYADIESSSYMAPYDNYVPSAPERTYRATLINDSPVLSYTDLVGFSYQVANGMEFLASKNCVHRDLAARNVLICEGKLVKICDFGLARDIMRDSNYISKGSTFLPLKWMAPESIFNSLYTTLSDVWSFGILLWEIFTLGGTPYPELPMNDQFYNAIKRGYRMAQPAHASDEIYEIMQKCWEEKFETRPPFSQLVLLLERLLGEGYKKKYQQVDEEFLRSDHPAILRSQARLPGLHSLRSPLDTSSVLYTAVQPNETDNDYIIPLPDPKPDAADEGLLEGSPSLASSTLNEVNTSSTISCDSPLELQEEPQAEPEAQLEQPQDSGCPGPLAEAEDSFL

Q: `COc1cc2nccc(Oc3ccc(NC(=O)Nc4c(Cl)cccc4Cl)cc3)c2cc1OC` [Compound 230, N-(2,6-Dichlorophenyl)-N'-{4-[(6,7-dimethoxy-4-quinolyl)oxy]phenyl}urea] was tested. Which IC50 did it give?
A: 34 nM

Q: Which IC50 does the source give for `COc1cc2nccc(Oc3ccc(NC(=O)Nc4ccc(SC)cc4)cc3)c2cc1OC` [Compound 163] here?
A: 5 nM

Q: For `COc1cc2nccc(Oc3ccc(C(=O)c4ccc(N5CCCC5)cc4)cc3)c2cc1OC` [Compound 289, (4-[{6,7-Dimethoxy-4-quinolyl)oxy]phenyl)[4-pyrrolidinophenyl]methanone], which IC50 is on record?
A: 32 nM

Q: With `COc1cc2nccc(Oc3ccc(NC(=O)Nc4ccccc4C(C)C)cc3)c2cc1OC` [Compound 166, N-(2-Isopropylphenyl)-N'-{4-[(6,7-dimethoxy-4-quinolyl)oxy]phenyl}urea] as the compound, how does the IC50 read?
A: 11 nM

Q: How did the IC50 turn out when `COc1cc2nccc(Oc3ccc(NC(=O)c4ccc([N+](=O)[O-])cc4)cc3)c2cc1OC` [Compound 66, N-{4-[(6,7-Dimethoxy-4-quinolinyl)oxy]phenyl}-(4-nitrophenyl)carboxamide] was run?
A: 130 nM

Q: Which IC50 does the source give for `COc1cc2nccc(Oc3ccc(NC(=O)Nc4cccc(N)c4)cc3)c2cc1OC` [Compound 172, N-(3-Aminophenyl)-N'-{4-[(6,7-dimethoxy-4-quinolyl)oxy]phenyl}urea] here?
A: 10 nM

Q: `COc1cc2nccc(Oc3ccc(NC(=O)Nc4cccc(O)c4)cc3)c2cc1OC` [Compound 282, N-(3-Hydroxyphenyl)-N'-{4-[(6,7-dimethoxy-4-quinolyl)oxy]phenyl}urea] was tested. Which IC50 did it give?
A: 8 nM

Q: `CCCCOc1ccc(C(=O)Nc2ccc(Oc3ccnc4cc(OC)c(OC)cc34)cc2)cc1` [Compound 74, N-{4-[(6,7-Dimethoxy-4-quinolinyl)oxy]phenyl}-(4-butoxyphenyl)carboxamide] was tested. Which IC50 did it give?
A: 340 nM

Q: `COc1cc2nccc(Oc3ccc(NC(=O)NCc4ccc(C(C)(C)C)cc4)cc3)c2cc1OC` [Compound 248, N-[(4-tert-Butylphenyl)methyl]-N'-{4-[(6,7-dimethoxy-4-quinolyl)oxy]phenyl}urea] was tested. Which IC50 did it give?
A: 63 nM

Q: Which IC50 does the source give for `COc1cc2nccc(Oc3ccc(NC(=O)Nc4ccccc4)cc3)c2cc1OC` [Compound 167, N-{4-[(6,7-Dimethoxy-4-quinolyl)oxy]phenyl}-N'-phenylurea] here?
A: 4 nM

Q: For `COc1cc2nccc(Oc3ccc(NC(=O)Nc4ccc(OC(C)=O)cc4)cc3)c2cc1OC` [Compound 270, N-(4-Acetoxyphenyl)-N'-{4-[(6,7-dimethoxy-4-quinolyl)oxy]phenyl}urea], which IC50 is on record?
A: 6 nM

Q: `CCCCCCNC(=O)Nc1ccc(Oc2ccnc3cc(OC)c(OC)cc23)cc1` [Compound 196, N-Hexyl-N'-{4-[(6,7-dimethoxy-4-quinolyl)oxy]phenyl}urea] was tested. Which IC50 did it give?
A: 31 nM

Q: Which IC50 does the source give for `COc1ccc(OC)c(NC(=O)Nc2ccc(Oc3ccnc4cc(OC)c(OC)cc34)cc2)c1` [Compound 258, N-(2,5-Dimethoxyphenyl)-N'-{4-[(6,7-dimethoxy-4-quinolyl)oxy]phenyl}urea] here?
A: 7 nM

Q: Which IC50 does the source give for `COc1cc2nccc(Oc3ccc(NC(=O)Nc4cc(F)ccc4F)cc3)c2cc1OC` [Compound 273, N-(2,5-Difluorophenyl)-N'-{4-[(6,7-dimethoxy-4-quinolyl)oxy]phenyl}urea] here?
A: 5 nM

Q: `COc1cc2nccc(Oc3ccc(NC(=O)Nc4cccc(C(=O)O)c4)cc3)c2cc1OC` [Compound 283, N-(3-Hydroxycarbonylphenyl)-N'-{4-[(6,7-dimethoxy-4-quinolyl)oxy]phenyl}urea] was tested. Which IC50 did it give?
A: 2 nM

Q: With `COc1cc2nccc(Oc3ccc(NC(=O)Nc4ccc(C(C)C)cc4)cc3)c2cc1OC` [Compound 51, N-(4-Isopropylphenyl)-N'-{4-[(6,7-dimethoxy-4-quinolinyl)oxy]phenyl}urea] as the compound, how does the IC50 read?
A: 9 nM

Q: For `COc1cc2nccc(Oc3ccc(NC(=O)C4CCCC4)cc3)c2cc1OC` [Compound 79, N-{4-[(6,7-Dimethoxy-4-quinolinyl)oxy]phenyl}cyclopentanecarboxamide], which IC50 is on record?
A: 340 nM

Q: `COc1cc2nccc(Oc3ccc(C(=O)c4ccc(N5CCCCC5)cc4)cc3)c2cc1OC` [Compound 290, {4-[(6,7-Dimethoxy-4-quinolyl)oxy]phenyl}[4-piperidinophenyl]methanone] was tested. Which IC50 did it give?
A: 55 nM

Q: For `COc1cc2nccc(Oc3ccc(NC(=O)Nc4ccc(C(=O)c5ccccc5)cc4)cc3)c2cc1OC` [Compound 195, N-{4-[(6,7-Dimethoxy-4-quinolyl)oxy]phenyl}-N'-(4-phenylcarbonylphenyl)urea], which IC50 is on record?
A: 79 nM

Q: For `COc1cc2nccc(Oc3ccc(NC(=O)NCc4ccc(N(C)C)cc4)cc3)c2cc1OC` [Compound 251, N-{4-[(6,7-Dimethoxy-4-quinolyl)oxy]phenyl}-N'-[(4-dimethylaminophenyl)methyl]urea], which IC50 is on record?
A: 36 nM

Q: With `COc1cc2nccc(Oc3ccc(NC(=O)Nc4ccc(Oc5ccc(F)cc5)nc4)cc3)c2cc1OC` [Compound 279, N-{5-[2-(4-fluoro)phenoxy]-pyridyl}-N'-(4-[(6,7-dimethoxy-4-quinolyl)oxy]phenyl}urea] as the compound, how does the IC50 read?
A: 29 nM

Q: For “N-(2-Chloro-3-methylphenyl)-N'-{4-[(6,7-dimethoxy-4-quinolyl)oxy]phenyl}urea [Compound 243]”, which IC50 is on record?
A: 14 nM

Q: `COc1cc2nccc(Oc3cccc(NC(=O)Nc4ccccc4C(F)(F)F)c3)c2cc1OC` [Compound 94] was tested. Which IC50 did it give?
A: 23 nM

Q: With `COc1cc2nccc(Oc3ccc(NC(=O)Nc4cccc(C(F)(F)F)c4)cc3)c2cc1OC` [Compound 53] as the compound, how does the IC50 read?
A: 10 nM

Q: `CCCCNC(=O)Nc1ccc(Oc2ncnc3cc(OC)c(OC)cc23)cc1` [Compound 220, N-(4-[(6,7-Dimethoxy-4-quinazolinyl)oxy]phenyl)-N'-n-butylurea] was tested. Which IC50 did it give?
A: 9 nM

Q: With `COc1cc2nccc(Oc3ccc(NC(=O)NCc4ccccn4)cc3)c2cc1OC` [Compound 247, N-(4-[(6,7-Dimethoxy-4-quinolyl)oxy]phenyl)-N'-(2-pyridylmethyl)urea] as the compound, how does the IC50 read?
A: 9 nM

Q: How did the IC50 turn out when `COc1cc2nccc(Oc3ccc(NC(=O)Nc4ccc5c(c4)CCC5)cc3)c2cc1OC` [Compound 197, N-(5-Indanyl)-N'-{4-[(6,7-dimethoxy-4-quinolyl)oxy]phenyl}urea] was run?
A: 10 nM

Q: Which IC50 does the source give for `COc1cc2nccc(Oc3ccc(NC(=O)Nc4ccc(Oc5ccccc5)cc4)cc3)c2cc1OC` [Compound 50, N-{4-[(6,7-Dimethoxy-4-quinolinyl)oxy]phenyl}-N'-(4-phenoxyphenyl)urea] here?
A: 67 nM

Q: Which IC50 does the source give for `COc1cc2nccc(Oc3ccc(NC(=O)Nc4ccc5c(c4)OCCO5)cc3)c2cc1OC` [Compound 199, N-(3,4-Ethylenedioxyphenyl)-N'-{4-[(6,7-dimethoxy-4-quinolyl)oxy]phenyl}urea] here?
A: 3 nM

Q: Which IC50 does the source give for `CCCCc1ccc(NC(=O)Nc2ccc(Oc3ccnc4cc(OC)c(OC)cc34)cc2)cc1` [Compound 47, N-(4-Butylphenyl)-N'-{4-[(6,7-dimethoxy-4-quinolinyl)oxy]phenyl}urea] here?
A: 43 nM

Q: For `COc1cc2nccc(Oc3ccc(NC(=O)Nc4c(F)cc(F)cc4F)cc3)c2cc1OC` [Compound 256, N-(2,4,6-Trifluorophenyl)-N'-{4-[(6,7-dimethoxy-4-quinolyl)oxy]phenyl}urea], which IC50 is on record?
A: 4 nM

Q: For `COc1cc2nccc(Oc3ccc(NC(=O)Nc4cccc(OC)c4OC)cc3)c2cc1OC` [Compound 268, N-(2,3-Dimethoxyphenyl)-N'-{4-[(6,7-dimethoxy-4-quinolyl)oxy]phenyl}urea], which IC50 is on record?
A: 7 nM

Q: How did the IC50 turn out when `COc1cc2nccc(Oc3ccc(NC(=O)Nc4ccc(Cl)cc4N)cc3)c2cc1OC` [Compound 239, N-(2-Amino-4-chlorophenyl)-N'-{4-[(6,7-dimethoxy-4-quinolyl)oxy]phenyl}urea] was run?
A: 5 nM
